Active and inactive are the calls of the source.
What was measured:
[1] = MITF Orthogonal Assay: SK-MEL-5 CTG Assay Measured in Cell-Based System Using Plate Reader - 2084-02_Inhibitor_Dose_DryPowder_Activity_Set7.; type: functional
[2] = MITF Orthogonal Assay: MALME3 CTG Assay Measured in Cell-Based System Using Plate Reader - 2084-04_Inhibitor_Dose_DryPowder_Activity_Set6.; type: functional; details: MALME-3
[3] = inhibitors of TRPM1-promoter reporter in SK-MEL-5 – cell-based, luciferase, dry powder, set 8, MITF inhibitor project, dose response (AID 624430); type: functional
[4] = cytotoxicity in MITF-independent A375 cells – cell-based, CellTiter-Glo luminescence, dry powder, set 9, counter-screen for MITF modulator project, dose response (AID 651591); type: functional; details: A-375
[5] = growth inhibition of MALME3 cells – cell-based, CellTiter-Glo luminescence, dry powder, set 5, orthogonal assay for MITF inhibitor project, dose response (AID 651584); type: functional; details: MALME-3
[6] = MITF: Counter assay: A375 proliferation Measured in Cell-Based System Using Plate Reader - 2084-03_Inhibitor_Dose_DryPowder_Activity_Set8.; type: functional; details: A-375
[7] = growth inhibition of SK-MEL-5 melanoma cells – cell-based, CellTiter-Glo luminescence, dry powder, set 8, orthogonal assay for MITF inhibitor project, dose response (AID 651586); type: functional
[8] = inhibitors of TRPM1-promoter reporter in SK-MEL-5 – cell-based, luciferase, dry powder, set 9, MITF inhibitor project, dose response (AID 651588); type: functional
[9] = molecular target: Protein Tat (Human immunodeficiency virus type 1 group M subtype B (isolate HXB2)(HIV-1), UniProt P04608); type: functional;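 also: tat binding to TAR RNA read out by fluorescence polarization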
[10] = cytotoxicity toward HCT116 cells – cell-based, CellTiter-Glo luminescence, IC50, dose response (AID 1117332); type: functional; details: HCT-116
[11] = CellTiter-Glo luminescence survival assay, SW480 colon tumor line, concentration-response curve, half-maximal inhibitory concentration (AID 1117338); type: functional
[12] = RKO cell viability reduction, dose response, CellTiter-Glo luminescence (AID 1117322); type: functional
[13] = cytotoxicity toward HT-29 cells – cell-based, CellTiter-Glo luminescence, IC50, dose response (AID 1117330); type: functional
[14] = Reduced DLD-1 viability, concentration-response, CellTiter-Glo luminescence (AID 1117352); type: functional
[15] = cytotoxicity toward Colo320 cells – cell-based, CellTiter-Glo luminescence, IC50, dose response (AID 1117334); type: functional; details: COLO 320
[16] = SNU-C1 cell viability reduction, dose response, CellTiter-Glo luminescence (AID 1117323); type: functional, cell-based
[17] = HCT116 cell viability decrease, GSK3B pretreatment – CellTiter-Glo, IC50, dose response (AID 1117339); type: functional; details: HCT-116

Protein Tat, sequence (P04608 whole entry): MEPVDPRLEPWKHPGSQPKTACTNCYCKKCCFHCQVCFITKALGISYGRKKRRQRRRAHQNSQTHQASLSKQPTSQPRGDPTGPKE

**Q.** With `O=C1C(Nc2ccc(Br)cc2)=C(N2CCCCC2)C(=O)c2ccccc21` as the molecule, how does the AC50 [1] read?
**A.** The AC50 was 4.57 µM (active).

**Q.** And the AC50 [2]?
**A.** The AC50 was 15.7 µM (active).

**Q.** What about the AC50 [3] of the same molecule?
**A.** The AC50 was 4.44 µM (active).

**Q.** And the AC50 [4]?
**A.** The AC50 was 32.8 µM (active).

**Q.** And the AC50 [5]?
**A.** The AC50 was 15.7 µM (active).

**Q.** And the AC50 [6]?
**A.** Its AC50 is 47.2 µM (active).

**Q.** And the AC50 [7]?
**A.** Its AC50 is > 70 µM (inactive).

**Q.** And the AC50 [8]?
**A.** The AC50 was 15.3 µM (active).

**Q.** Which IC50 [9] does the source give for `CCSC1=C(C#N)C(c2cccs2)/C(=C(\O)OC)C(C)=N1` (configuration not stated) here?
**A.** Its IC50 is > 100 µM (active).

**Q.** What does the source list for `CSc1ccc2c(c1)N(CCC1CCCCN1C)c1ccccc1S2` (configuration not stated) [THIORIDAZINE]?
**A.** IC50 [10]: > 20 µM (inactive); IC50 [11]: 3.71 µM (active); IC50 [12]: 5.49 µM (inactive); IC50 [13]: 5.9 µM (inactive); IC50 [14]: > 20 µM (inactive); IC50 [15]: 7.92 µM (inactive); IC50 [16]: 2.9 µM (active); IC50 [17]: 8.11 µM (inactive)

— ChEMBL document CHEMBL1201862, “PubChem BioAssay data set” (2004)
